In this assay the target is T1, RORγ (Homo sapiens, UniProt P51449).
T1 sequence (P51449 269-508 limits assumed): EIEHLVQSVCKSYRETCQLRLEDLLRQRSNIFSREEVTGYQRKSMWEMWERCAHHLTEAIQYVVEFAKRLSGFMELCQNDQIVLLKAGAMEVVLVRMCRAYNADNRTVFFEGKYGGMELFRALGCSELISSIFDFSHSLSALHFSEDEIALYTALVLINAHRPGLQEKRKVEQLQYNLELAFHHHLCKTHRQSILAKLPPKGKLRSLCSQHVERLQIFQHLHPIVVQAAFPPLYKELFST
Kind of assay: RORγ GAL4 reporter gene assay. The settings on record: mean pIC50, inhibition of RORγ (GAL4-RORγ-LBD) in 293FT cells, luciferase readout, overnight incubation.

Text: The RORγ ligand-binding domain (LBD) was fused to the yeast GAL4 DNA binding domain (DBD) and placed under the control of the human cytomegalovirus (CMV) immediate early promoter, using expression vector pFN26A (Promega) and standard recombinant DNA cloning methods.
To monitor the inhibitory effect of compounds on RORγ, a transcriptional reporter construct was used. The pGL4.35 vector (Promega) contains nine copies of the GAL4 Upstream Activator Sequence (UAS). This sequence drives the transcription of the luciferase reporter gene luc2P in response to binding of a fusion protein containing the GAL4 DNA binding domain, as for example expressed by the GAL4-RORγ-LBD and GAL4-VP16 expression vectors described above.
The day after transfection, cells were plated into 96 well plates, test compound was added and the plates were incubated overnight. Subsequently, the firefly luciferase activity was quantified using luciferase detection reagent and luminescence readout.
1500 μL of this reagent mixture was added to 5 μg of GAL4 fusion protein expression vector and 5 μg of the transcriptional reporter construct, and incubated at RT for 20 minutes.
Subsequently, the cells were washed with Phosphate Buffered Saline (PBS) (Lonza), after which the PBS was removed. To dissociate the cells, 1 ml of TrypLE Express (Invitrogen) was added to the flask, followed by incubation at RT until the cells visually started to detach. Cells were collected in 5 mL of assay medium (DMEM culture medium (Lonza), 10% dialyzed FBS (Invitrogen) and Pen/Strep (Lonza)) to achieve a single cell suspension. 10×10^6 cells were spun down and re-suspended in 10 mL of assay medium. Subsequently, the cell suspension was added to the transfection mix tube, and then transferred as a whole to a T75 flask (Greiner), followed by overnight (16-24 hours) incubation at 37° C. and 5% CO2.
For compound screening, the cells were harvested (as described above) and counted. […] 80 μL of cell suspension (60,000 cells) was plated per well into a white, flat bottom, tissue culture treated, 96 well screening plates (Greiner).
Test compounds were diluted, starting from a 10 mM dimethylsulfoxide (DMSO) stock solution, to serial dilutions in DMSO at 500× the final test concentration. Subsequently, these solutions were diluted to 5× the final test concentration in two 10-fold-dilution steps in assay medium. The final DMSO concentration of the 5× test compound solution was 1%. 20 μL of the 5× test compound solution was added to each test well of the 96 well plate previously plated with 80 μl cell suspension, resulting in the final test concentration with 0.2% DMSO.
The plates were incubated overnight (16-24 hours) at 37° C. and 5% CO2.
For the luciferase readout, the luciferase reagent (Britelite Plus, Perkin Elmer) was brought to RT. […] The luciferase luminescence signal was measured using a Wallac Victor Microplate Reader (Perkin Elmer).
The half maximum inhibitory concentration (IC50) values for the test compounds were calculated from the luciferase signal using GraphPad Prism software (GraphPad Software).

`CCS(=O)(=O)c1ccc(CC(=O)Nc2ccc(C(O)(CC3CCCC3)C(F)(F)F)cc2)cc1` (stereo not shown) [Example 86, N-(4-(3-cyclopentyl-1,1,1-trifluoro-2-hydroxypropan-2-yl)phenyl)-2-(4-(ethylsulfonyl)phenyl)acetamide] returned an IC50 of no more than 1 µM. On to `O=C(Cc1ccc(S(=O)(=O)CC2CC2)cc1)Nc1ccc(C(O)(Cc2ccccc2)C(F)(F)F)cc1` (stereo not shown) [Example 87, 2-(4-cyclopropylmethanesulfonylphenyl)-N-[4-(1,1,1-trifluoro-2-hydroxy-3-phenylpropan-2-yl)phenyl]acetamide], for which the IC50 is no more than 0.1 µM. `O=C(Cc1ccc(S(=O)(=O)CC2CC2)cc1)Nc1ccc(C(O)(c2ccccc2)C(F)(F)F)cc1` (stereo not shown) [Example 88, 2-(4-((cyclopropylmethyl)sulfonyl)phenyl)-N-(4-(2,2,2-trifluoro-1-hydroxy-1-phenylethyl)phenyl)acetamide] registered an IC50 of no more than 0.1 µM.

`O=C(Cc1ccc(S(=O)(=O)NC2CC2)cc1)Nc1ccc(C(O)(C(F)(F)F)C(F)(F)F)c(Cl)c1` [Example 89, N-(3-chloro-4-(1,1,1,3,3,3-hexafluoro-2-hydroxypropan-2-yl)phenyl)-2-(4-(N-cyclopropylsulfamoyl)phenyl)acetamide] showed an IC50 of no more than 1 µM. Turning to `O=C(Cc1ccc(S(=O)(=O)NC2CC2)cc1)Nc1ccc(C(O)(C2CCCC2)C(F)(F)F)cc1` (stereo not shown) [Example 90, N-(4-(1-cyclopentyl-2,2,2-trifluoro-1-hydroxyethyl)phenyl)-2-(4-(N-cyclopropylsulfamoyl)phenyl)acetamide], the IC50 is no more than 1 µM. The molecule `Cc1cc(S(=O)(=O)CC2CC2)ccc1CC(=O)Nc1ccc(C(O)(C(F)(F)F)C(F)(F)F)cc1` [Example 93, 2-(4-((cyclopropylmethyl)sulfonyl)-2-methylphenyl)-N-(4-(1,1,1,3,3,3-hexafluoro-2-hydroxypropan-2-yl)phenyl)acetamide] gave an IC50 of no more than 0.1 µM.

In turn, `CC(C)(C)CC(O)(c1ccc(NC(=O)Cc2ccc(S(=O)(=O)NC3CC3)cc2)cc1)C(F)(F)F` (stereo not shown) [Example 94, 2-(4-(N-cyclopropylsulfamoyl)phenyl)-N-(4-(1,1,1-trifluoro-2-hydroxy-4,4-dimethylpentan-2-yl)phenyl)acetamide] showed an IC50 of no more than 0.1 µM. On to `CC(C)C(O)(c1ccc(NC(=O)Cc2ccc(S(=O)(=O)NC3CC3)cc2)cc1)C(F)(F)F` (stereo not shown) [Example 95, 2-(4-(N-cyclopropylsulfamoyl)phenyl)-N-(4-(1,1,1-trifluoro-2-hydroxy-3-methylbutan-2-yl)phenyl)acetamide], for which the IC50 is no more than 1 µM. On to `CCS(=O)(=O)c1ccc(CC(=O)Nc2ccc(C(O)(CC(C)(C)C)C(F)(F)F)cc2)cc1` (stereo not shown) [Example 96, 2-(4-(ethylsulfonyl)phenyl)-N-(4-(1,1,1-trifluoro-2-hydroxy-4,4-dimethylpentan-2-yl)phenyl)acetamide], for which the IC50 is no more than 0.1 µM.

The molecule `CCS(=O)(=O)c1ccc(CC(=O)Nc2ccc(C(O)(c3ccccc3)C(F)(F)F)cc2)cc1` (stereo not shown) [Example 97, 2-(4-(ethylsulfonyl)phenyl)-N-(4-(2,2,2-trifluoro-1-hydroxy-1-phenylethyl)phenyl)acetamide] yielded an IC50 of no more than 1 µM. Molecule `O=C(Cc1ccc(S(=O)(=O)CC2CC2)cc1)Nc1ccc(C(O)(C(F)(F)F)C(F)(F)F)cc1Cl` [Example 98, N-(2-chloro-4-(1,1,1,3,3,3-hexafluoro-2-hydroxypropan-2-yl)phenyl)-2-(4-((cyclopropylmethyl)sulfonyl)phenyl)acetamide] had an IC50 of no more than 0.1 µM. The molecule `O=C(Cc1ccc(S(=O)(=O)NC2CC2)cc1)Nc1ccc(C(O)(CC2CCCC2)C(F)(F)F)cc1` (stereo not shown) [Example 99, N-(4-(3-cyclopentyl-1,1,1-trifluoro-2-hydroxypropan-2-yl)phenyl)-2-(4-(N-cyclopropylsulfamoyl)phenyl)acetamide] registered a half-maximal inhibitory concentration (IC50) of no more than 1 µM. In the case of `O=C(Nc1ccc(C(O)(C(F)(F)F)C(F)(F)F)cc1)C(=O)c1ccc(S(=O)(=O)CC2CC2)cc1` [Example 102, 2-(4-((cyclopropylmethyl)sulfonyl)phenyl)-N-(4-(1,1,1,3,3,3-hexafluoro-2-hydroxypropan-2-yl)phenyl)-2-oxoacetamide], the IC50 is no more than 1 µM.
